Experimental data published in paper PMC5419573, “TRPV1 activation power can switch an action mode for its polypeptide ligands” (PLoS ONE, 2017).
Entries after “also recorded” stand apart in the source; their conditions may differ.

Tests used:
rat TRPV1 [1] = target: T1, rat TRPV1 (Rattus norvegicus, UniProt O35433); format: cell-based
T1 construct: expressed in transfected cells; host or cells: CHO cells (T-Rex System, Invitrogen; tetracycline-induced)
Experimental: (§1) All data were expressed as the mean ± standard deviation (SD). Significance of the effect was tested by ANOVA followed by Tukey’s post hoc analysis with the p-value of 0.05.

rat TRPV1 [2] = target: T1, rat TRPV1; format: cell-based; remark: listed apart in the source
Experimental: Recordings were made by a patch-clamp technique in whole-cell configuration using CHO cells stably expressing rat TRPV1. Whole-cell currents were recorded and digitized by Instru TECH LIH 8+8 data acquisition system (HEKA, Germany) at -80 mV holding voltage using EPC-8 (HEKA, Germany) amplifier, filtered at 5 kHz, sampled at 10kHz and stored. The external solution contained in mM: CaCl2 2.5, KCl 5, NaCl 143, D-glucose 18, HEPES 10, pH 7.35. Patch pipettes (2–5 MΩ resistance) were prepared by puller model P-97 (Sutter Instruments, USA). Pipette solution contained in mM: CsF 100, CsCl 40, NaCl 5, CaCl2 0.5, EGTA 5, HEPES 10, pH 7.2. Series resistance of about 20 MΩ was compensated by 70–80% and monitored during experiments. Drugs were applied using the ALA-VM8 (ALA Scientific Instruments, USA) perfusion system under computer control. All experiments were performed at 22°C.
as §1
The cell line stably expressing rat TRPV1 was used for electrophysiological and internal Ca^2+ fluorescent recordings. […] In Fluo-4-based intracellular calcium assay experiments, capsaicin or 2APB were used as channel agonists. […] To take the response rundown in account, the peptide effects were measured relative to the average value of the preceding and subsequent control responses (see S2 Fig).
Fig 1 Action of APHCs on capsaicin-induced TRPV1 currents. […] G, Current–voltage relationship for TRPV1 currents induced by 3 and 0.3 μM capsaicin in control (black and red) and in the presence of 100 nM APHC1 (blue and magenta). […] I, Summary of the polypeptides action (100 nM) on TRPV1 responses activated by different concentrations of capsaicin, n = 9 for all series.

human TRPV1 = conditions: cited from earlier work
Text: (§2) Since elaboration of TRPV1 pharmacology has obvious perspectives related to the potential treatment of pain and inflammation, many compounds affecting TRPV1 activation have been characterized. Some TRPV1 ligands have distinct effects on different modes of channel activation (heat, protons or chemical ligands).

rat TRPV1 [3] = target: T1, rat TRPV1; conditions: ref [8], [10], [11]; cited from earlier work
Text: as §2

monkey TRPV1 = conditions: ref [10], [11]; cited from earlier work
Text: as §2

TRPV1 = test system: TRPV1; parameters: method as in PMID 17093448, PMID 20510930, PMID 26420335, PMID 24061123; conditions: ref [20], [21], [22], [39]; cited from earlier work
mice = conditions: ref [20], [21], [22]; cited from earlier work
Text: Small lipophilic drugs can potentially reach their binding sites in different parts of a receptor, which complicates the study of mechanisms of action. Binding sites for membrane-impermeable peptide modulators should be localized at the outside surface of a channel protein. There are a few examples of polypeptides affecting TRPV1 channels.

T1 sequence (O35433 whole entry): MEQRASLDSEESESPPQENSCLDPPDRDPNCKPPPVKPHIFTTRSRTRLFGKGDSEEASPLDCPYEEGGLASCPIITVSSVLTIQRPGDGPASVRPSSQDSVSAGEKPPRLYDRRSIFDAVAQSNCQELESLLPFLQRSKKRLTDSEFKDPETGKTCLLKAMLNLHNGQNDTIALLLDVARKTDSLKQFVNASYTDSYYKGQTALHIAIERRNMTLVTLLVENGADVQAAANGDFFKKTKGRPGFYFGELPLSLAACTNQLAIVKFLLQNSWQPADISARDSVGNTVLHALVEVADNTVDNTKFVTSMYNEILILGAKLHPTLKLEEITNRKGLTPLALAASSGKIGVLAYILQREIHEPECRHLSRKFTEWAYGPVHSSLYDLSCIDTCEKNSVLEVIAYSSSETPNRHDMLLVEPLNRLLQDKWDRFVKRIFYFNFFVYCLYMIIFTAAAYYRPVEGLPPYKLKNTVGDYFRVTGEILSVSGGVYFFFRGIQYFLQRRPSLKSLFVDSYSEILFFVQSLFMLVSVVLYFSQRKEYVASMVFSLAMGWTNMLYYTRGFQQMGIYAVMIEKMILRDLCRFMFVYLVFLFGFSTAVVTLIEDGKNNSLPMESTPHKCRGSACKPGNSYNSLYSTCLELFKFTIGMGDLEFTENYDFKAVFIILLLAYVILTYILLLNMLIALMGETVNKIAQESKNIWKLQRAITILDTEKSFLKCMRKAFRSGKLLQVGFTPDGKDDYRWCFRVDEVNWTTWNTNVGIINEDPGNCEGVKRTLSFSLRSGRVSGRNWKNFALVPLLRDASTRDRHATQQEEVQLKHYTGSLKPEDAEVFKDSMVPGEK

NCCOB(c1ccccc1)c1ccccc1 [2APB, 2-aminoethoxydiphenyl borate]
Ca2+ influx on agonist application (rat TRPV1 [1]): did not result in a detectable Ca^2+ influx | reversal voltage of evoked currents (rat TRPV1 [2]): close to zero

O=C(/C=C/c1ccc(C(F)(F)F)cc1N1CCCCC1)Nc1cccc2c1C[C@H](O)C2 [AMG8562, (R,E)-N-(2-hydroxy-2,3-dihydro-1H-inden-4-yl)-3-(2-(piperidin-1-yl)-4-(trifluoromethyl)phenyl)-acrylamide]
effect on capsaicin activation of human TRPV1 (human TRPV1; ref [11]): blocks both heat and capsaicin activation | effect on heat activation of human TRPV1 (human TRPV1; ref [11]): blocks both heat and capsaicin activation | effect on proton activation of human TRPV1 (human TRPV1; ref [11]): partial antagonist of proton activation | effect on capsaicin response of rat TRPV1 (rat TRPV1 [3]): blocks capsaicin activation | effect on heat response of rat TRPV1 (rat TRPV1 [3]): does not affect heat activation | effect on proton response of rat TRPV1 (rat TRPV1 [3]): potentiates proton activation

CC(C)(C)c1ccc(CNC(=S)NCc2ccc(NS(C)(=O)=O)c(F)c2)cc1 [JYL-1421]
action profile of rat TRPV1 (block of capsaicin, not heat or protons) on human TRPV1 (human TRPV1; ref [10], [11]): could not be shown | action profile of rat TRPV1 (block of capsaicin, not heat or protons) on monkey TRPV1 (monkey TRPV1): could not be shown | effect on capsaicin response of rat TRPV1 (rat TRPV1 [3]): blocks responses to capsaicin | effect on proton response of rat TRPV1 (rat TRPV1 [3]): not to heat or protons

COc1cc(CNC(=O)CCCC/C=C/C(C)C)ccc1O [capsaicin]
reversal voltage of evoked currents (rat TRPV1 [2]): close to zero

Oc1cc2c(cc1O)CN(C(=S)NCCc1ccc(Cl)cc1)CCC2 [capsazepine]
block of calcium responses to capsaicin (rat TRPV1 [1]): fully blocked; also recorded: abolished | block of capsaicin-evoked currents (rat TRPV1 [2]): reversibly blocked; also recorded: abolished | effect on capsaicin response of rat TRPV1 (rat TRPV1 [3]): heat and capsaicin responses are blocked at low capsazepine concentrations | effect on heat response of rat TRPV1 (rat TRPV1 [3]): heat and capsaicin responses are blocked at low capsazepine concentrations | effect on proton response of rat TRPV1 (rat TRPV1 [3]): ineffective as an antagonist of proton-induced response

B1: DkTx: the bivalent toxin DkTx from tiger tarantula Ornithoctonus huwena (peptide, UniProt P0CH43 1-79, looked up)
Tau-theraphotoxin-Hs1a: DCAKEGEVCSWGKKCCDLDNFYCPMEFIPHCKKYKPYVPVTTNCAKEGEVCGWGSKCCHGLDCPLAFIPYCEKYRGRND
modifications: Tau-theraphotoxin-Hs1a
notes: the bivalent toxin DkTx from tiger tarantula Ornithoctonus huwena
action on TRPV1 (TRPV1): Peptide agonists of TRPV1 | effect when injected in mice (mice): cause pain behavior
